Data published in patent US7294627B2, “Chemical compounds” (Eli Lilly and Company, priority 2001, dated 2007).

Target: T1, human factor Xa (Homo sapiens, UniProt P00742)
T1 construct: 25 μL human factor Xa (32 nM in 0.03 M tris, 0.15 M NaCl, 1 mg/mL HSA); purchased Enzyme Research Laboratories (South Bend, Ind., USA)
Test: Enzyme inhibition assay (apparent Kass, chromogenic substrate hydrolysis)
Format: biochemical
Details: apparent association constant, human factor Xa 3.2 nM, BzIleGluGlyArgpNA substrate; 1/appKass=app Ki
Experimental: Human factor Xa and human thrombin are purchased from Enzyme Research Laboratories (South Bend, Ind., USA). Other proteases are from other commercial sources. Chromogenic para-nitroanilide peptide protease substrates are purchased from Midwest Biotech (Fishers, Ind., USA).
The binding affinities for human factor Xa are measured as apparent association constants (Kass) derived from protease inhibition kinetics as described previously.^a,b,c,d The apparent Kass values are obtained using automated (BioMek-1000) dilutions of inhibitors (Kass determinations are performed in triplicate at each of four-eight inhibitor concentrations) into 96-well plates and chromogenic substrate hydrolysis rates determined at 405 nm using a Thermomax plate reader from Molecular Devices (San Francisco). […] [Free Xa] and [bound Xa] are determined from linear standard curves on the same plate by use of SoftmaxPro software for each inhibitor concentration and apparent Kass calculated for each inhibitor concentration which produced hydrolysis inhibition between 20% and 80% of the control (3.2 nM factor Xa): apparent Kass=[E:I]/[Ef][If]=[Eb]/[Ef][I^o−I^b]. […] The variability of mean apparent Kass values determined at the single substrate concentration is +/−15%. […]

T1 sequence (P00742 235-488 limits assumed): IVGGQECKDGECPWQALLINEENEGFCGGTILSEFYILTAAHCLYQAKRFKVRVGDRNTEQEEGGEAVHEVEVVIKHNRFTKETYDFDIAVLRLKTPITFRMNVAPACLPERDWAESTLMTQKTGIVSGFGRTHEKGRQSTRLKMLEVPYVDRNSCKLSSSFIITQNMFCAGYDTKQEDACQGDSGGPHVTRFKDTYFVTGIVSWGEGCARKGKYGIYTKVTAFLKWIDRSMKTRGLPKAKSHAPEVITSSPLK
T1 sequence (P00742 41-179 partner limits assumed): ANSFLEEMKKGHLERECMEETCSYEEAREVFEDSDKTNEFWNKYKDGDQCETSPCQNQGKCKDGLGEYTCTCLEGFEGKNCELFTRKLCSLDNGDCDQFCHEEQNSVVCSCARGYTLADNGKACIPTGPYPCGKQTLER

## COc1ccc(C(=O)NC(C(=O)N2CCC(CN(C)c3ccncc3)CC2)c2ccccc2Cl)cc1.Cl (racemic) [Example 7]
  Kass: ~1.22e+08 L/mol
